In EP2353599A1, “8-hydroxyquinolines as inhibitors of cathepsin B” (University of Ljubljana, priority 2010, dated 2011):

Key:
Cathepsin B [1] = biological target: T1, Cathepsin B (Homo sapiens, UniProt P07858); assay: Cathepsin B exopeptidase activity, enzyme kinetics with substrate Abz-GIVRAK(Dnp)-OH; type: biochemical
Description: The effect of 5-nitro-8-hydroxyquinoline on cathepsin B exopeptidase activity was assessed with an exopeptidase substrate Abz-GIVRAK(Dnp)-OH. 5 µl of Abz-GIVRAK(Dnp)-OH (final concentration 1, 3 and 6 µM) and 5 µl of 5-nitro-8-hydroxyquinoline at increasing concentrations were added to wells of a black microplate. 90 µl of human recombinant cathepsin B was then added to a final concentration of 0.25 nM in activation buffer (60 mM acetate buffer, pH 5.0 with 0.1 % PEG, 5 mM DTT and 1.5 mM EDTA). All assay mixtures contained a constant amount of DMSO, i.e. 5 %.
Formation of fluorescent degradation product was continuously monitored at 320 nm ± 20 nm excitation and 420 nm ± 10 nm emission wavelengths on Tecan Safire^2™ at 37°C. Mechanism and the constant of inhibition (Ki) of cathepsin B exopeptidase activity were determined using the graphical method according to Cornish-Bowden (Cornish-Bowden A: A Simple Graphical Method for Determining the Inhibition Constants of Mixed, Uncompetitive and Non-Competitive Inhibitors. Biochem J 1974, 137:143-4.) and using the SigmaPlot® 11, Enzyme Kinetics Module™ 1.3.

cathepsin L = cathepsin L (Homo sapiens, UniProt P07711); assay: Selectivity: Ki against cathepsin L, substrate Z-FR-AMC; type: biochemical
cathepsin L, sequence (P07711 114-333, species assumed): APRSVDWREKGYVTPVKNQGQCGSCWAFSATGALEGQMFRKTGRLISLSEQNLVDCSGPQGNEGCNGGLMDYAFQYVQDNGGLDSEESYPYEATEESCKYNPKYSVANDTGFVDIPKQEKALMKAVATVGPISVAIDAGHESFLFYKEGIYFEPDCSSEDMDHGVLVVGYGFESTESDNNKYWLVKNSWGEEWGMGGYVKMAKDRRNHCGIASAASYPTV
Description: (§1) Activation buffer used with cathepsin L was 100 mM acetate buffer, pH 5.5 with 0.1 % PEG, 5 mM DTT and 1.5 mM EDTA and with cathepsin H was 100 mM phosphate buffer, pH 6.8 with 0.1 % PEG, 5 mM DTT and 1.5 mM EDTA. Table II. Ki values for 5-nitro-8-hydroxyquinoline determined against cathepsins B, L and H.

cathepsin H = biological target: T2, cathepsin H (Homo sapiens, UniProt P09668); assay: Selectivity: Ki against cathepsin H, substrate R-AMC; type: biochemical
T2 sequence (P09668 98-335): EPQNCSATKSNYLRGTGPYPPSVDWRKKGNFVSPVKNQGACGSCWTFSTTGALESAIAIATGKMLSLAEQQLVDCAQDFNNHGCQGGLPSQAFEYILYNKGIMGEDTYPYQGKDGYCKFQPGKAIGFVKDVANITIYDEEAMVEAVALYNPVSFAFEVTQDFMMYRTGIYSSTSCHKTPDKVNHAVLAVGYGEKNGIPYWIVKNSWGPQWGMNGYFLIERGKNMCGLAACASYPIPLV
Description: as §1

Cathepsin B [2] = biological target: T1, Cathepsin B; assay: Reversibility of cathepsin B inhibition by enzyme kinetics (100-fold dilution of enzyme-inhibitor complex); type: biochemical; settings: for enzyme inhibition after dilution of the complex: inhibitor at 10-fold IC50, 100-fold dilution
Description: Reversibility of cathepsin B inhibition with 5-nitro-8-hydroxyquinoline was determined with three independent experiments. First, we used enzyme kinetics. Cathepsin B at 100-fold its final assay concentration (10 nM) and 5-nitro-8-hydroxyquinoline at 10-fold its IC50 were incubated for 5, 15 and 30 min at room temperature at 2 µl. The enzyme-inhibitor complex was then diluted 100-fold with 5 µM Z-RR-AMC to a final volume of 200 µl, initiating the reaction. Before the dilution of the enzyme-inhibitor complex the enzyme's activity is inhibited by 90 %. In the case of a reversible inhibitor after dilution this percentage is reduced to 9 %. In the case of an irreversible inhibitor the percentage stays unchanged (90 %).

Cathepsin B [3] = biological target: T1, Cathepsin B; assay: Reversibility by mass spectrometry (ESI-MS of cathepsin B after incubation and dialysis); type: binding; settings: equimolar inhibitor, 1 h room temperature, dialysis
Description: Third, reversibility of 5-nitro-8-hydroxyquinoline was also checked with mass spectrometry. Cathepsin B (4.4 µM) was activated in the activation buffer for 5 min at 37 °C. Afterwards, an equimolar amount of the inhibitor was added to the enzyme and incubated for 1 h at room temperature. The mixture was dialyzed against water five times using Microcon Centrifugal Filter Devices YM-10 to avoid salt interferences and to remove unbound molecules of the test compound. Samples were then prepared by adding an equal volume of acetonitrile containing 0.1 % formic acid and analyzed with ESI-MS on an AutoSpec Q instrument. As a positive control CA-074 was used.

MCF-10A neoT cells = assay: Three-dimensional in vitro invasion model based on spheroids; type: cell-based; settings: 10 µM, Matrigel
Description: The ability of 5-nitro-8-hydroxyquinoline to inhibit tumour cell invasion was also tested in a three-dimensional in vitro invasion model based on spheroids. Multicellular tumour spheroids were prepared according to hanging drop method (Kelm JM, Timmins NE, Brown CJ, Fussenegger M, Nielsen LK: Method for generation of homogeneous multicellular tumour spheroids applicable to a wide variety of cell types. Biotechnol Bioeng 2003, 83:173-80.). Drops (20 µl) of MCF-10A neoT cell suspension ([…]) were placed onto the lids of 10 cm dishes which were inverted over dishes containing 10 ml of PBS. Upon inversion of the tray the cells accumulated at the free liquid-air interface in this way forming spheroids after sufficient sedimentation time, in our case 6 days. Wells of a 24-well plate were filled with 400 µl of Matrigel (5mg/ml) containing the 5-nitro-8-hydroxyquinoline at the final concentration of 10 µM. After 15 min incubation at 37 °C 1 ml of medium with the test compound (10 µM) was placed on top of Matrigel. Spheroids were then carefully plated into the wells and incubated at 37 °C in a humidified atmosphere containing 5 % CO2. Images of spheroids were obtained using an Olympus IX 81 motorized inverted microscope and CellR software.

MCF-10A neoT cell = assay: DQ-collagen IV degradation by fluorescence microscopy; type: cell-based; settings: 10 µM, 24 h
Description: 5-nitro-8-hydroxyquinoline was also tested for the ability to inhibit intracellular and extracellular degradation of DQ-collagen IV. First, inhibitory effect was observed using fluorescence microscopy. Wells of precooled Lab-Tek™ Chambered Coverglass (Nalge Nunc International) were coated with 25 µg/ml of the quenched fluorescent substrate DQ-collagen IV suspended in 40 µl of 100 % Matrigel for 10 min at 4°C. DQ-collagen IV/Matrigel matrix was allowed to polymerize for 40 min at 37°C. 400 µl of MCF-10A neoT cell suspension (1.5x10^5/ml) in growth medium containing 2 % Matrigel and 10 µM of 5-nitro-8-hydroxyquinoline were plated onto gelled Matrigel. After 24 h incubation at 37°C with 5 % CO2 the samples were monitored for fluorescent degradation products using Olympus IX 81 motorized inverted microscope and CellR software. CA-074 and CA-074Me were used as positive controls.

## O=[N+]([O-])c1ccc(O)c2ncccc12 [Compound 1, 5-nitro-8-hydroxyquinoline]
Cathepsin B [1]; cathepsin B exopeptidase activity
  Mechanism of inhibition: non-competitive
Cathepsin B [1]; exopeptidase activity, substrate Abz-GIVRAK(Dnp)-OH, pH 5.0, 37°C
  Ki: 220 ± 13.3 µM
Cathepsin B [1]; ratio of exopeptidase Ki to endopeptidase Ki
  inhibits endopeptidase activity more potently than exopeptidase activity: 5.8 times
Cathepsin L
  Mechanism of inhibition: competitive
Cathepsin L; substrate Z-FR-AMC, pH 5.5
  Ki: 175 ± 17.1 µM
Cathepsin H
  Mechanism of inhibition: mixed
Cathepsin H; substrate R-AMC, pH 6.8
  Ki: 220.8 ± 2.1 µM
Cathepsin B [2]; 5 min incubation
  enzyme inhibition after dilution of the complex: 21.7 ± 2.2%
Cathepsin B [2]; 15 min incubation
  enzyme inhibition after dilution of the complex: 25.2 ± 3.5%
Cathepsin B [2]; 30 min incubation
  enzyme inhibition after dilution of the complex: 27.6 ± 3.2%
Cathepsin B [2]; expected inhibition after dilution considering the Hill coefficient
  calculated value of inhibition: 15%
Cathepsin B [3]
  Molecular weight of cathepsin B after incubation with inhibitor: did not alter
MCF-10A neoT cells
  inhibition of tumour invasion in three-dimensional spheroid model: completely abrogated the invasive activity at the edge of the spheroid
MCF-10A neoT cell
  inhibition of DQ-collagen IV degradation (fluorescence microscopy): inhibited both intracellular and extracellular DQ-collagen IV degradation
